Strand notation (5' to 3'): a small letter for the sugar, then the base; units joined by * are phosphorothioate-linked, units joined directly phosphodiester-linked; [ ] holds rarer units or linkages, { } end groups; capitals alone tell only the bases. e = 2'-O-(2-methoxyethyl) (MOE); [5mC] = 5-methylcytosine; d = 2'-deoxy (DNA)

For one data set, the system named is LIM domain kinase 1 mRNA. The data set can be described thus: Antisense inhibition of LIM domain kinase 1 expression, dose response in A549 cells, real-time quantitative PCR. The class given is cell-based, human. The conditions noted are these: for Percent Inhibition of LIM Domain Kinase 1 mRNA Levels: averaged from two experiments, normalized to untreated control; for reduction of LIM domain kinase 1 mRNA levels (dose response): 6, 25, 100 and 400 nM. As to the method:
When cells reached 70% confluency, they were treated with oligonucleotide. […] Cells were harvested 16-24 hours after oligonucleotide treatment.
PCR reagents were obtained from Invitrogen Corporation, (Carlsbad, Calif.).
Probes and primers to human LIM domain kinase 1 were designed to hybridize to a human LIM domain kinase 1 sequence, using published sequence information (GenBank accession number D26309.1, incorporated herein as SEQ ID NO:4). For human LIM domain kinase 1 the PCR primers were: forward primer: […] (SEQ ID NO: 5) reverse primer: […] (SEQ ID NO: 6) and the PCR probe was: FAM-[…]-TAMRA (SEQ ID NO: 7) where FAM is the fluorescent dye and TAMRA is the quencher dye.
In accordance with the present invention, three of the oligonucleotides targeted to LIM domain kinase 1: ISIS 206212 ([…], SEQ ID NO: 67), ISIS 206219 ([…], SEQ ID NO: 74) and ISIS 206214 ([…], SEQ ID NO: 69) were investigated in a dose response experiment. The scrambled control oligonucleotides used in the dose response study were ISIS 129695 ([…], SEQ ID NO: 147), and ISIS 114845 ([…], SEQ ID NO: 148).
All cytidine residues are 5-methylcytidines.
In the dose-response experiment, with mRNA levels as the endpoint, A549 cells were treated with ISIS 206212, ISIS 206219, ISIS 206214 and control oligonucleotides at doses of 6, 25, 100 and 400 nM oligonucleotide. Data were obtained by real-time quantitative PCR as described in other examples herein and are averaged from two experiments with mRNA levels in the treatment groups, (including the scrambled control), being normalized to an untreated control group.

For data set [1], the system named is human LIM domain kinase 1 mRNA. The data set is described as follows: Antisense inhibition of human LIM domain kinase 1 mRNA levels, quantitative real-time PCR, A549 cells (screen). The class given is cell-based. The conditions noted are these: for % INHIB (inhibition of human LIM domain kinase 1 mRNA levels): quantitative real-time PCR, averages from two experiments, screening concentration not given (50 nM to 300 nM used herein); for inhibition of human LIM domain kinase 1 expression (text summary of Table 1): real-time PCR, bound stated. The method, boiled down: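 A549 cells at 70% confluency treated with antisense oligonucleotides (all cytidines 5-methylcytidine), harvested 16-24 h later. LIMK1 mRNA measured by real-time RT-PCR with FAM/TAMRA probe, normalized to total RNA by RiboGreen; values are averages of two experiments.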
(Real-time PCR tracks product formation cycle by cycle.)

Turning to “114845 (eT*eA*e[5mC]*eG*eT*d[5mC]*d[5mC]*dG*dG*dA*dG*dG*d[5mC]*dG*dT*eA*e[5mC]*eG*e[5mC]*e[5mC]) [compound 114845]”, the “Percent Inhibition of LIM Domain Kinase 1 mRNA Levels” value (from here on “Percent Inhibition”) is 0% in the data set on LIM domain kinase 1 mRNA (dose 6 nM), 0% in the data set with LIM domain kinase 1 mRNA (dose 25 nM), 0% in the data set with LIM domain kinase 1 mRNA (dose 100 nM) and 24% with LIM domain kinase 1 mRNA (dose 400 nM).

As for “129695 (eT*eT*e[5mC]*eT*eA*d[5mC]*d[5mC]*dT*d[5mC]*dG*d[5mC]*dG*d[5mC]*dG*dA*eT*eT*eT*eA*e[5mC]) [compound 129695]”, the “Percent Inhibition” value in the data set on LIM domain kinase 1 mRNA (dose 6 nM) came to 2%; in the data set on LIM domain kinase 1 mRNA (dose 25 nM) it was 0%; with LIM domain kinase 1 mRNA (dose 100 nM) it was 12%; with LIM domain kinase 1 mRNA (dose 400 nM) it was 62%.

As for “206212 (antisense eA*e[5mC]*eT*e[5mC]*e[5mC]*d[5mC]*d[5mC]*dA*dT*dT*dT*dG*dG*dT*dT*e[5mC]*e[5mC]*eT*eG*eG) [compound 206212]”, the “Percent Inhibition” value turned out to be 0% in the data set with LIM domain kinase 1 mRNA (dose 6 nM), 73% in the data set with LIM domain kinase 1 mRNA (dose 25 nM), 91% in the data set with LIM domain kinase 1 mRNA (dose 100 nM) and 97% in the data set with LIM domain kinase 1 mRNA (dose 400 nM). Also, the “% INHIB (inhibition of human LIM domain kinase 1 mRNA levels)” value (“% INHIB” for short) in data set [1] came out at 91%.

Take “206214 (antisense e[5mC]*e[5mC]*eG*eG*e[5mC]*d[5mC]*dA*dG*dG*dG*d[5mC]*dA*d[5mC]*d[5mC]*dG*e[5mC]*eA*eG*e[5mC]*eT) [compound 206214]”: the “Percent Inhibition” value is given as 0% in the data set on LIM domain kinase 1 mRNA (dose 6 nM), 46% in the data set with LIM domain kinase 1 mRNA (dose 25 nM), 84% with LIM domain kinase 1 mRNA (dose 100 nM) and 98% with LIM domain kinase 1 mRNA (dose 400 nM). In data set [1], the “% INHIB” value is 87%.

Take “206219 (antisense eT*eG*e[5mC]*eA*e[5mC]*dT*dG*dA*dG*dA*dA*dA*dG*d[5mC]*dT*eT*e[5mC]*eA*e[5mC]*eA) [compound 206219]”: the “Percent Inhibition” value in the data set on LIM domain kinase 1 mRNA (dose 6 nM) is reported as 0%; in the data set with LIM domain kinase 1 mRNA (dose 25 nM), 67%; in the data set on LIM domain kinase 1 mRNA (dose 100 nM), 84%; in the data set with LIM domain kinase 1 mRNA (dose 400 nM), 93%. The “% INHIB” value in data set [1] is 89%.

As to “actccccatttggttcctgg (eA*e[5mC]*eT*e[5mC]*e[5mC]*d[5mC]*d[5mC]*dA*dT*dT*dT*dG*dG*dT*dT*e[5mC]*e[5mC]*eT*eG*eG; antisense) [ISIS 206212]”, the “reduction of LIM domain kinase 1 mRNA levels (dose response)” value (“reduction” below) with LIM domain kinase 1 mRNA is recorded as “capable of reducing LIM domain kinase 1 mRNA levels in a dose-dependent manner”. In addition, the “inhibition of human LIM domain kinase 1 expression (text summary of Table 1)” value (shortened to “inhibition … (text summary of Table 1)”) in data set [1] was “at least 65%”.

“ccggccagggcaccgcagct (e[5mC]*e[5mC]*eG*eG*e[5mC]*d[5mC]*dA*dG*dG*dG*d[5mC]*dA*d[5mC]*d[5mC]*dG*e[5mC]*eA*eG*e[5mC]*eT; antisense) [ISIS 206214]”: the “reduction” value in the data set with LIM domain kinase 1 mRNA is on record as “capable of reducing LIM domain kinase 1 mRNA levels in a dose-dependent manner”. In data set [1], the “inhibition … (text summary of Table 1)” value is listed as “at least 65%”.

As to “gtcaacctcatgcactcgac (eG*eT*e[5mC]*eA*eA*d[5mC]*d[5mC]*dT*d[5mC]*dA*dT*dG*d[5mC]*dA*d[5mC]*eT*e[5mC]*eG*eA*e[5mC]; antisense) [ISIS 206163]”, in data set [1], the “inhibition … (text summary of Table 1)” value is recorded as “at least 65%”.

On to “gtcacaacacctgcaggaga (eG*eT*e[5mC]*eA*e[5mC]*dA*dA*d[5mC]*dA*d[5mC]*d[5mC]*dT*dG*d[5mC]*dA*eG*eG*eA*eG*eA; antisense) [ISIS 206229]”, for which the “inhibition … (text summary of Table 1)” value in data set [1] is “at least 65%”.

For “gtctcggtggatgatgttca (eG*eT*e[5mC]*eT*e[5mC]*dG*dG*dT*dG*dG*dA*dT*dG*dA*dT*eG*eT*eT*e[5mC]*eA; antisense) [ISIS 206202]”, the “inhibition … (text summary of Table 1)” value in data set [1] is listed as “at least 65%”.

Turning to “gtggccctggctcagtcggg (eG*eT*eG*eG*e[5mC]*d[5mC]*d[5mC]*dT*dG*dG*d[5mC]*dT*d[5mC]*dA*dG*eT*e[5mC]*eG*eG*eG; antisense) [ISIS 206207]”, the “inhibition … (text summary of Table 1)” value in data set [1] is recorded as “at least 65%”.

Consider “gtttctgccgggcagagctg (eG*eT*eT*eT*e[5mC]*dT*dG*d[5mC]*d[5mC]*dG*dG*dG*d[5mC]*dA*dG*eA*eG*e[5mC]*eT*eG; antisense) [ISIS 206189]”, for which, in data set [1], the “inhibition … (text summary of Table 1)” value was “at least 65%”.

“tagcgggcccagtagtcctt (eT*eA*eG*e[5mC]*eG*dG*dG*d[5mC]*d[5mC]*d[5mC]*dA*dG*dT*dA*dG*eT*e[5mC]*e[5mC]*eT*eT; antisense) [ISIS 206175]”: the “inhibition … (text summary of Table 1)” value in data set [1] is listed as “at least 65%”.

For “tcacggtgtgtcaccttgat (eT*e[5mC]*eA*e[5mC]*eG*dG*dT*dG*dT*dG*dT*d[5mC]*dA*d[5mC]*d[5mC]*eT*eT*eG*eA*eT; antisense) [ISIS 206195]”, in data set [1], the “inhibition … (text summary of Table 1)” value was “at least 65%”.

Consider “tccaggcatcgcatgacctt (eT*e[5mC]*e[5mC]*eA*eG*dG*d[5mC]*dA*dT*d[5mC]*dG*d[5mC]*dA*dT*dG*eA*e[5mC]*e[5mC]*eT*eT; antisense) [ISIS 206198]”, for which, in data set [1], the “inhibition … (text summary of Table 1)” value is “at least 65%”.

With “tccttcttgcagaagagctg (eT*e[5mC]*e[5mC]*eT*eT*d[5mC]*dT*dT*dG*d[5mC]*dA*dG*dA*dA*dG*eA*eG*e[5mC]*eT*eG; antisense) [ISIS 206172]”, the “inhibition … (text summary of Table 1)” value in data set [1] was “at least 65%”.

With “tcgagggtcagctggagcag (eT*e[5mC]*eG*eA*eG*dG*dG*dT*d[5mC]*dA*dG*d[5mC]*dT*dG*dG*eA*eG*e[5mC]*eA*eG; antisense) [ISIS 206188]”, in data set [1], the “inhibition … (text summary of Table 1)” value is listed as “at least 65%”.

Regarding “tgcactgagaaagcttcaca (eT*eG*e[5mC]*eA*e[5mC]*dT*dG*dA*dG*dA*dA*dA*dG*d[5mC]*dT*eT*e[5mC]*eA*e[5mC]*eA; antisense) [ISIS 206219]”, the “reduction” value in the data set with LIM domain kinase 1 mRNA was “capable of reducing LIM domain kinase 1 mRNA levels in a dose-dependent manner”. Further, in data set [1], the “inhibition … (text summary of Table 1)” value was “at least 65%”.

For “tggatggaattcttcacatc (eT*eG*eG*eA*eT*dG*dG*dA*dA*dT*dT*d[5mC]*dT*dT*d[5mC]*eA*e[5mC]*eA*eT*e[5mC]; antisense) [ISIS 206183]”, in data set [1], the “inhibition … (text summary of Table 1)” value is “at least 65%”.

As for “tgtccatgctcttgatgatg (eT*eG*eT*e[5mC]*e[5mC]*dA*dT*dG*d[5mC]*dT*d[5mC]*dT*dT*dG*dA*eT*eG*eA*eT*eG; antisense) [ISIS 206199]”, in data set [1], the “inhibition … (text summary of Table 1)” value is “at least 65%”.

On to “ttcttccctccaggtgcaac (eT*eT*e[5mC]*eT*eT*d[5mC]*d[5mC]*d[5mC]*dT*d[5mC]*d[5mC]*dA*dG*dG*dT*eG*e[5mC]*eA*eA*e[5mC]; antisense) [ISIS 206166]”, for which the “inhibition … (text summary of Table 1)” value in data set [1] was “at least 65%”.

The values above are taken from patent publication US20040014047A1, “Antisense modulation of LIM domain kinase 1 expression” (Isis Pharmaceuticals Inc., priority 2002, published 2004).
